Results on three molecules are retold here after US20230286970A1, “NOVEL OXADIAZOLE-BASED SELECTIVE HDAC6 INHIBITORS” (ITALFARMACO S.P.A., priority 2020, published 2023).

Structures are written as SMILES. pIC50: −log10 of the molar value. Read-outs that look alike come from different tables or passages of the source.

One series concerns the target recombinant human HDAC6 (Homo sapiens (Human), UniProt Q9UBN7). Kind of series: Enzymatic screening, HDAC6 inhibition (fluorogenic FdL_G substrate). It is filed as biochemical. An outline of the steps: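 Enzyme was preincubated with compound (8 doses, triplicate, 1% DMSO) in 25 mM Tris-HCl pH 8, 130 mM NaCl, 0.05% Tween-20, 10% glycerol, with BSA. A FLUOR DE LYS-Green substrate was then added, and fluorescence was read after developer plus 2 μM TSA.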

The next series addresses recombinant human HDAC1 (Homo sapiens (Human), UniProt Q13547). Kind of series: Enzymatic screening, HDAC1 inhibition (fluorogenic FdL_G substrate). It is filed as biochemical. The gist of the method:
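Recombinant human HDAC1 inhibition was measured fluorometrically using the FLUOR DE LYS-Green (FdL_G) substrate. Compounds at 8 doses (1% DMSO final) in Tris-HCl pH 8 buffer with NaCl, Tween-20 and glycerol were preincubated in triplicate with enzyme and 1 mg/mL BSA, then given substrate. Developer I plus 2 μM TSA was added, and fluorescence read after 25 minutes in the dark.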

The target in another series is HDAC2 (Homo sapiens (Human), UniProt Q92769). Kind of series: Enzymatic screening, HDAC2 inhibition. It is filed as biochemical.
A further series addresses HDAC3 (Homo sapiens (Human), UniProt O15379). The series is described as follows: Enzymatic screening, HDAC3 inhibition. Type of series: biochemical.
The target in the next series is HDAC4 (Homo sapiens (Human), UniProt P56524). The series is described as follows: Enzymatic screening, HDAC4 inhibition. It is filed as biochemical. An outline of the steps: (§1)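 Enzyme was preincubated with compound (8 doses, triplicate, 1% DMSO) in 25 mM Tris-HCl pH 8, 130 mM NaCl, 0.05% Tween-20, 10% glycerol, with BSA at 2 mg/mL (HDAC4, HDAC9) or 1 mg/mL (HDAC8, HDAC10). A FLUOR DE LYS, FLUOR DE LYS-Green or Boc-Lys(Tfa)-AMC substrate was then added, and fluorescence was read after developer plus 2 μM TSA.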

The target of another series is HDAC5 (Homo sapiens (Human), UniProt Q9UQL6). Kind of series: Enzymatic screening, HDAC5 inhibition. Type of series: biochemical.
For another series, the target named is HDAC7 (Homo sapiens (Human), UniProt Q8WUI4). The series is described as follows: Enzymatic screening, HDAC7 inhibition. It is filed as biochemical.
Another series addresses HDAC8 (Homo sapiens (Human), UniProt Q9BY41). The series is described as follows: Enzymatic screening, HDAC8 inhibition. It is filed as biochemical. The gist of the method:
as §1

For another series, the target named is HDAC9 (Homo sapiens (Human), UniProt Q9UKV0). Kind of series: Enzymatic screening, HDAC9 inhibition. It is filed as biochemical. The gist of the method:
as §1

A further series concerns the target HDAC10 (Homo sapiens (Human), UniProt Q969S8). The series is described as follows: Enzymatic screening, HDAC10 inhibition. Type of series: biochemical. The gist of the method:
as §1

The target in a further series is HDAC11 (Homo sapiens (Human), UniProt Q96DB2). The series is described as follows: Enzymatic screening, HDAC11 inhibition. It is filed as biochemical.
In series [1] the test system is α-tubulin acetylation in 697 cell line. Kind of series: In vitro α-tubulin acetylation in 697 cell line (ELISA). Type of series: cell-based. To be noted: 16 hours, read-out: fold increase @ 1 uM TubAc (ratio of acetylated tubulin and total tubulin towards control). The gist of the method: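 B 697 cells in RPMI 10% FCS were treated for 16 h at 37 °C with compound at 1000, 333, 111 or 37 nM. Lysate (0.3 μg protein) was coated and probed by ELISA for acetylated and total α-tubulin, read at 450 nm. The acetylated/total ratio is given as fold over untreated control.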
For orientation: An ELISA detects its analyte on a solid surface through an enzyme-linked reagent.

For series [2] the following is noted: 90 min, pH 7.4.
The conditions of series [3]: 90 min, pH 7.4. This is another data set of the same source.
For series [4] the following is noted: 4 h.
For series [5] the following is noted: 4 h. The source holds these as a separate data set.
Method: (§2) In order to evaluate the stability to circulating enzymes, test compounds were incubated in human and rat plasma at 37° C. in a thermostated oscillating bath. Each test compound was incubated at μM concentration (50 μM when the samples were analysed by UV/HPLC, 1 or 2 μM when the samples were analysed by LC-MS/MS) for 0, 15, 30 minutes and 1, 2 and 4 hours. The reaction was stopped placing samples on ice bath and adding acidified acetonitrile. After centrifugation (10 minutes at 14000 rpm) an aliquot of the supernatant was diluted with water, filtered with 0.45 μm regenerated cellulose syringe filters and injected in HPLC-UV or in LC-MS/MS. The percentage of the remaining amount at the various incubation times with respect to the initial amount were calculated. The half-life in plasma was also calculated.
A short description of another series: Stability in rat plasma. To be noted: after 4 hours, 37° C.
The nature of series [6]: Stability in human plasma. To be noted: after 4 hours, 37° C.
Method: as §2
The nature of series [7]: Stability to Phase I metabolism in rat S9 liver fraction. The following applies: after 90 minutes, 37° C.
A short description of series [8]: Stability to Phase I metabolism in human S9 liver fraction. The following applies: after 90 minutes, 37° C.

The term pIC50 denotes the negative decadic logarithm of the IC50, by convention in mol/L.

Sequence of recombinant human HDAC1 (Q13547 whole entry): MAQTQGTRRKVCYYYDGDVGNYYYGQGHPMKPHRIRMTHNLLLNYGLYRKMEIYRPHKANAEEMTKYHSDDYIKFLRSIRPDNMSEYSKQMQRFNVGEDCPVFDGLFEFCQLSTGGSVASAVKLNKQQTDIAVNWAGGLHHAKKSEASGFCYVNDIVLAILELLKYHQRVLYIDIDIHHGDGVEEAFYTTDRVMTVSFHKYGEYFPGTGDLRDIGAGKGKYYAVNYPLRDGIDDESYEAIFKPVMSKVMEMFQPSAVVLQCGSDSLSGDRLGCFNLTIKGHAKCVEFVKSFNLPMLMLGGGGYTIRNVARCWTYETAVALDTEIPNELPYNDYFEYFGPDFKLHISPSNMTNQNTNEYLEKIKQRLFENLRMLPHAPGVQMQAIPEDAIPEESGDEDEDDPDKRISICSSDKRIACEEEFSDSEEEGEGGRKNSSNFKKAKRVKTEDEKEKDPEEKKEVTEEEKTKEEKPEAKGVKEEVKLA
Sequence of recombinant human HDAC6 (Q9UBN7 whole entry): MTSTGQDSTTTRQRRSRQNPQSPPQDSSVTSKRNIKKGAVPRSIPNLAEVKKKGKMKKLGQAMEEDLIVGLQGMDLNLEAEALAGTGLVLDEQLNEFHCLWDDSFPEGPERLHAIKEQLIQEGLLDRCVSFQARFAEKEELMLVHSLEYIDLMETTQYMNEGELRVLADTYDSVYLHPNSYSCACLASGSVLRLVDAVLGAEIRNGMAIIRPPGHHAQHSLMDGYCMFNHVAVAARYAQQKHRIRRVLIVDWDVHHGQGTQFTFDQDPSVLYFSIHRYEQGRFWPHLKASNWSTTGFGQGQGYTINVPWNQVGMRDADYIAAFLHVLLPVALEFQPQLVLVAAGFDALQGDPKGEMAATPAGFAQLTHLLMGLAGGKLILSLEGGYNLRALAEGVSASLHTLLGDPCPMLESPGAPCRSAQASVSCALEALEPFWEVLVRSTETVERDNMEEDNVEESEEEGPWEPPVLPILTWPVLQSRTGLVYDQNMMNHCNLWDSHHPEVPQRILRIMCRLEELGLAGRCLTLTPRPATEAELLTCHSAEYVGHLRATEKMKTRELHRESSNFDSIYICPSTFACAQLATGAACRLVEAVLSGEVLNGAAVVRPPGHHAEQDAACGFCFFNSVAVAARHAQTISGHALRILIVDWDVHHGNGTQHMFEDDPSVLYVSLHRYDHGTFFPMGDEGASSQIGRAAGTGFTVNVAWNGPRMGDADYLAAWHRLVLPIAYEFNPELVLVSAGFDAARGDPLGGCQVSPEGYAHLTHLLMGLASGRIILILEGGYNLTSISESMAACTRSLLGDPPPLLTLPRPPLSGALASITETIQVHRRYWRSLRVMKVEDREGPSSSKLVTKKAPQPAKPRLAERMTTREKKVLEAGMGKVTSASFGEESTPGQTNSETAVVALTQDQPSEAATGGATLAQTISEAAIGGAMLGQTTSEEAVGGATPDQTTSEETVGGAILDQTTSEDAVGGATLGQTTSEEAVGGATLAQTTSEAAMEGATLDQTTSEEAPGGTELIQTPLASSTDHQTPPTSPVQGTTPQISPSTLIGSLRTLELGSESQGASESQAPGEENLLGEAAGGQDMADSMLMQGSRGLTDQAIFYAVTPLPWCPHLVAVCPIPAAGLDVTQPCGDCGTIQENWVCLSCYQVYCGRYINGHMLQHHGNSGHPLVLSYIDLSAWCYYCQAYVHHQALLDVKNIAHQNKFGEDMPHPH
Sequence of HDAC3 (O15379 whole entry): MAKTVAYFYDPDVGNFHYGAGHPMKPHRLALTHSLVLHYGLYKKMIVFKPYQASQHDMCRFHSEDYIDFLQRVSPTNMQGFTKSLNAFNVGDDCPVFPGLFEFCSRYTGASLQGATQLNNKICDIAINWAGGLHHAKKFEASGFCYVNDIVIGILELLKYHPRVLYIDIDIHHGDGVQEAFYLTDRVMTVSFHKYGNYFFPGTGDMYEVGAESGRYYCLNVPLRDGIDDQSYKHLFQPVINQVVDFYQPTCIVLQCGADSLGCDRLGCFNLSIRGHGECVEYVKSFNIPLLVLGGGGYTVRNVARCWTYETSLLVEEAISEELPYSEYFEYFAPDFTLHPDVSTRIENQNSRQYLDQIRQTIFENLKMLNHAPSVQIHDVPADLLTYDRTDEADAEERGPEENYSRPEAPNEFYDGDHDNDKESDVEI
Sequence of HDAC3 (Q9Y618 395-489 partner): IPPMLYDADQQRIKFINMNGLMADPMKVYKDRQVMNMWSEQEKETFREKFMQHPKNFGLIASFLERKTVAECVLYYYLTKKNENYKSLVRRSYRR
Sequence of HDAC10 (Q969S8 whole entry): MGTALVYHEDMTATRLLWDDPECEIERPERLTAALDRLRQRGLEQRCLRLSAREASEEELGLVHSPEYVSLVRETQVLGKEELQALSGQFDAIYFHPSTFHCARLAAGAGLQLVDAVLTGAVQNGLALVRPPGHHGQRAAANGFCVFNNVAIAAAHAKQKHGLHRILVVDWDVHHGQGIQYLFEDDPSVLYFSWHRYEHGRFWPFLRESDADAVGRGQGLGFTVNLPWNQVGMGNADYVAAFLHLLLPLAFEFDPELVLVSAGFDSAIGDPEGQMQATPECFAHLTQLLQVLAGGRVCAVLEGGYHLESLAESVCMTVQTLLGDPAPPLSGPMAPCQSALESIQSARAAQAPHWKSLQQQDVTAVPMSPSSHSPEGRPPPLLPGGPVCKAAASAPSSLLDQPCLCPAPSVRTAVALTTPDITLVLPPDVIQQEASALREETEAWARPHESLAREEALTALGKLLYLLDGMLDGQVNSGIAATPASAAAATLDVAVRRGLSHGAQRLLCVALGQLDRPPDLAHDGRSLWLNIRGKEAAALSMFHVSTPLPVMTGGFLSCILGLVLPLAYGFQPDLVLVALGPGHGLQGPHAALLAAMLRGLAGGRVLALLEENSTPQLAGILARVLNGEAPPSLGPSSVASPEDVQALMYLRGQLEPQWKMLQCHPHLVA
Sequence of HDAC4 (P56524 whole entry): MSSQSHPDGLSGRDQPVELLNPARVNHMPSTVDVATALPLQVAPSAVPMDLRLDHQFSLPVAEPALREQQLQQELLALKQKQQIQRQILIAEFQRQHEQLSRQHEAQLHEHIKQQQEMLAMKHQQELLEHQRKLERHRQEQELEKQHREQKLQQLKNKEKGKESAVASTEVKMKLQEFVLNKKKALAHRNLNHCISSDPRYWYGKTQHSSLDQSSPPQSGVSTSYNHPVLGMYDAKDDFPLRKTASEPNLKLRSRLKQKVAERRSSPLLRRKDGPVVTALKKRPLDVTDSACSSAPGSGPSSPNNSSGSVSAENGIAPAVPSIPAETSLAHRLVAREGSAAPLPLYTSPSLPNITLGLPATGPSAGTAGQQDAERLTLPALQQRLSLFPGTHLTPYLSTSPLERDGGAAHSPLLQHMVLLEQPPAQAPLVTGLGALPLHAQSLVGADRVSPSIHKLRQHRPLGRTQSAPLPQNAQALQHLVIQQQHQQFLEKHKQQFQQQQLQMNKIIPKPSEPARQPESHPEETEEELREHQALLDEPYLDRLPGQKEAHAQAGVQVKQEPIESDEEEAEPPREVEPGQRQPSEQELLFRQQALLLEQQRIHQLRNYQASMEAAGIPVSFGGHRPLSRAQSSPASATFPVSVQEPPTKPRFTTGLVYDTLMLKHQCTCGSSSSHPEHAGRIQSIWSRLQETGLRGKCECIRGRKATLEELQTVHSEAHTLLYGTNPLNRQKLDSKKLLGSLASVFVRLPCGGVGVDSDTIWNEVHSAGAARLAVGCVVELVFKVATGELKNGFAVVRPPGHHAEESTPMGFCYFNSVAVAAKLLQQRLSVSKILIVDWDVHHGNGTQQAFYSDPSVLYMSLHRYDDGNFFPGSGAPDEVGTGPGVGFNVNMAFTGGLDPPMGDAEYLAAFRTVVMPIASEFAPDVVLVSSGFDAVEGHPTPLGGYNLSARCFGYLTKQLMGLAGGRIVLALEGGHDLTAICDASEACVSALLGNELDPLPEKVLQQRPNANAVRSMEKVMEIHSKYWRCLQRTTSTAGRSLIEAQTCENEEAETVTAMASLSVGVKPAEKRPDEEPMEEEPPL
Sequence of HDAC7 (Q8WUI4 whole entry): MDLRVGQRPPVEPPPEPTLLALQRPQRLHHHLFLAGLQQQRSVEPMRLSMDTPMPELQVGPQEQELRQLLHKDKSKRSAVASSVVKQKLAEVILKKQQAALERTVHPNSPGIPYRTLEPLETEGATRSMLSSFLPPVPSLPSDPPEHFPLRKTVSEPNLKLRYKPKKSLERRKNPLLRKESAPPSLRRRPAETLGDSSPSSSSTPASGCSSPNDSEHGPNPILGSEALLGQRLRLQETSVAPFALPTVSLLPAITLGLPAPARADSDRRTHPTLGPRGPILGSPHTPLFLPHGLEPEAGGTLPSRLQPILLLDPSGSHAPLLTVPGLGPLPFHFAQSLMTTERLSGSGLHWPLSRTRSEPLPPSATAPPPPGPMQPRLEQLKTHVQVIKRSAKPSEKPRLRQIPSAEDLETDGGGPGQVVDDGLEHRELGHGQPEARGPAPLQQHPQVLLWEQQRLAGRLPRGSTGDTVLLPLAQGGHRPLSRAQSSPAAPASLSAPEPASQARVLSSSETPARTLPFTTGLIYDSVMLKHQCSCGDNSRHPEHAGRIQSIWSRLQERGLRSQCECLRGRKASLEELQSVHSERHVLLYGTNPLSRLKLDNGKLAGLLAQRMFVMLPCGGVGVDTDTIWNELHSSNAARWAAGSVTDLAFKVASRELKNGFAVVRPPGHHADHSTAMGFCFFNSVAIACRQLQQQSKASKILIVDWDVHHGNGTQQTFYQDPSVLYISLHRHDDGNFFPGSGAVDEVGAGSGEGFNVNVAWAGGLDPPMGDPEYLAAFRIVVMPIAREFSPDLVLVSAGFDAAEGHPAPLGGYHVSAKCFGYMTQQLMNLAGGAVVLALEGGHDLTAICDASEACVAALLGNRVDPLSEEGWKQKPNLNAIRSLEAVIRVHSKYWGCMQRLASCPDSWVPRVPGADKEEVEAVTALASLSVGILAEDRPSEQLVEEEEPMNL

On to `O=C1Nc2ccc(-c3cn(Cc4ccc(-c5nnc(C(F)F)o5)cn4)nn3)cc2C12CCNCC2` [Compd. 19, 5-(1-((5-(5-(difluoromethyl)-1,3,4-oxadiazol-2-yl)pyridin-2-yl)methyl)-1H-1,2,3-triazol-4-yl)spiro[indoline-3,4′-piperidin]-2-one], for which the negative-log IC50 (pIC50) at recombinant human HDAC6 is 7.96; at recombinant human HDAC1 it was less than 3.70; against HDAC2, less than 4.52; against HDAC3, less than 4.52; against HDAC4 it was less than 4.52; at HDAC5, less than 4.52. Also, the pIC50 against HDAC7 was less than 4.52; against HDAC8, 3.24; against HDAC9, less than 4.52; against HDAC10, less than 4.52; on HDAC11, less than 4.52. Besides, the fold induction at 1 µM in [1] came to 4. Besides, in series [2], the “residual percentage in RAT S9 FRACTION” value was determined as 94%. Further, the “residual percentage in HUMAN S9 FRACTION” value in [3] was 96%. Also, in [4], the “residual percentage in RAT PLASMA” value is 83%. Also, the “residual percentage in HUMAN PLASMA” value in series [5] is reported as 83%.
Regarding `FC(F)c1nnc(-c2ccc(Cn3cnc(-c4ccc(NC5=NCCN5)cc4)c3)cc2)o1` [compound 22, N-(4-(1-(4-(5-(difluoromethyl)-1,3,4-oxadiazol-2-yl)benzyl)-1H-imidazol-4-yl)phenyl)-4,5-dihydro-1H-imidazol-2-amine], the pIC50 on recombinant human HDAC6 is 7.77; at recombinant human HDAC1, less than 3.70; at HDAC2 it was less than 4.52; against HDAC3, less than 4.52; on HDAC4, less than 4.52; against HDAC5, less than 4.52. For the same molecule, the pIC50 was less than 4.52 on HDAC7; less than 3.70 against HDAC8; less than 4.52 at HDAC9; less than 4.52 against HDAC10; less than 4.52 against HDAC11. The fold induction at 1 µM in [1] is 17. In addition, the “residual percentage in RAT PLASMA” value in “Stability in rat plasma” stood at 96%. In series [6], the “residual percentage in HUMAN PLASMA” value was found to be 92%. In [7], the “residual percentage in RAT S9 FRACTION” value is recorded as 98%. In addition, the “residual percentage in HUMAN S9 FRACTION” value in series [8] stood at 88%.
On to `O=C1Nc2ccc(-c3cn(Cc4ccc(-c5nnc(C(F)F)o5)cc4)nn3)cc2C12CCNCC2` [compound 46, 5-(1-(4-(5-(difluoromethyl)-1,3,4-oxadiazol-2-yl)benzyl)-1H-1,2,3-triazol-4-yl)spiro[indoline-3,4′-piperidin]-2-one], for which the pIC50 on recombinant human HDAC6 is 7.70; on recombinant human HDAC1, less than 3.70. In [1], the fold induction at 1 µM amounted to 5. Moreover, in series [2], the “residual percentage in RAT S9 FRACTION” value amounted to 60%. The “residual percentage in HUMAN S9 FRACTION” value in series [3] is 81%. In addition, in series [4], the “residual percentage in RAT PLASMA” value came to 72%. The “residual percentage in HUMAN PLASMA” value in series [5] is 74%.
